Test results as given in US20040097463A1, “Use of asiatic acid or asiaticoside for treatment of cancer” (priority 2000, published 2004).
Like-named read-outs stand apart in the source and are kept apart here.

Assays:
[1] = test system: Squamous carcinoma cells of SCC15; test: MTT dye reduction cytotoxicity test, SCC15; format: cell-based; conditions: for cytotoxicity at 2.5 µg/mL / cytotoxicity at 5 µg/mL / cytotoxicity at 10 µg/mL / cytotoxicity at 20 µg/mL / cytotoxicity at 25 µg/mL: Homo sapiens
Description: (§1) Taxol is a commercially available chemotherapeutic predominantly used in the treatment of breast cancer, lung cancer and ovarian cancer. The experiments were performed on human foreskin fibroblast cells as well as established tumor cell lines. The percentage cytotoxicity was measured by the MTT dye reduction test, which requires the NADPH dehydrogenase enzyme of the mitochondria in live cells (1).

[2] = test system: Squamous carcinoma cells of SCC4; test: MTT dye reduction cytotoxicity test, SCC4; format: cell-based; conditions: Homo sapiens
Description: as §1

[3] = MTT dye reduction cytotoxicity test, new born foreskin fibroblast cells; format: cell-based, human; conditions: human
Description: as §1

[4] = test system: New Born Foreskin Fibroblast cells; test: as above; format: cell-based, human
Description: as §1

[5] = MTT dye reduction cytotoxicity test, OKF6; format: cell-based; conditions: human
Description: as §1

[6] = test system: SK-BR3 breast cancer cell line; test: MTT dye reduction cytotoxicity test, SK-BR3; format: cell-based; conditions: Homo sapiens
Description: as §1

HeLa cells = test: Apoptosis by DAPI staining of the nuclei in HeLa cells; format: cell-based; conditions: cytotoxic concentrations
Description: HeLa cells were treated with asiatic acid at cytotoxic concentrations and apoptosis of the cells was measured by DAPI staining of the nuclei (2).

[7] = MTT dye reduction cytotoxicity test, OKF6; format: cell-based; conditions: human, OKF6 cells (SV40-transformed normal epithelial cell line)

C[C@H]1[C@H](C)CC[C@]2(C(=O)O)CC[C@]3(C)C(=CC[C@@H]4[C@@]5(C)C[C@@H](O)[C@H](O)[C@@](C)(CO)[C@@H]5CC[C@]43C)[C@H]12 [Asiatic Acid, asiatic acid]
cytotoxicity to squamous carcinoma cells compared with solid tumor cell line [1]: more potent cytotoxicity | cytotoxicity at 2.5 µg/mL ([1]; SCC-15, read-out: % cytotox): 16% | cytotoxicity at 5 µg/mL ([1]; SCC-15, read-out: % cytotox): 20% | cytotoxicity at 10 µg/mL ([1]; SCC-15, read-out: % cytotox): 88% | cytotoxicity at 20 µg/mL ([1]; SCC-15, read-out: % cytotox): 86% | cytotoxicity at 25 µg/mL ([1]; SCC-15, read-out: % cytotox): 90% | cytotoxicity at 5 µg/mL ([2]; SCC-4, read-out: % cytotox): 75% | cytotoxicity at 10 µg/mL ([2]; SCC-4, read-out: % cytotox): 75% | cytotoxicity at 20 µg/mL ([2]; SCC-4, read-out: % cytotox): 80% | cytotoxicity at 40 µg/mL ([2]; SCC-4, read-out: % cytotox): 70% | cytotoxicity at 50 µg/mL ([2]; SCC-4, read-out: % cytotox): 75% | cytotoxicity at 0.8 μg/ml [3]: 30% | cytotoxicity at 6.25 μg/ml [3]: 30% | cytotoxicity at 12.5 μg/ml [3]: 80% | cytotoxicity at 25 μg/ml [3]: 84% | cytotoxic effect on human foreskin fibroblast cells in culture [4]: dose-dependent | cytotoxicity at 2.5 μg/ml [5]: 5% | cytotoxicity at 5 μg/ml [5]: 23% | cytotoxicity at 10 μg/ml [5]: 88% | cytotoxicity at 20 μg/ml [5]: 92% | cytotoxicity at 25 μg/ml [5]: 92% | cytotoxicity at 0.8 µg/mL ([6]; SK-BR-3, read-out: % cytotox): 0% | cytotoxicity at 6.2 µg/mL ([6]; SK-BR-3, read-out: % cytotox): 0% | cytotoxicity at 12.5 µg/mL ([6]; SK-BR-3, read-out: % cytotox): 23% | cytotoxicity at 25 µg/mL ([6]; SK-BR-3, read-out: % cytotox): 80% | apoptosis of the cells measured by DAPI staining of the nuclei (HeLa cells): inducing apoptotic cell death

CC(=O)O[C@H]1C(=O)[C@@]2(C)[C@H]([C@H](OC(=O)c3ccccc3)[C@]3(O)C[C@H](OC(=O)[C@H](O)[C@@H](NC(=O)c4ccccc4)c4ccccc4)C(C)=C1C3(C)C)[C@]1(OC(C)=O)CO[C@@H]1C[C@@H]2O [Taxol, reference compound]
cytotoxicity at 2.5 µg/mL ([1]; SCC-15, SCC15, 2.5 μg/ml, read-out: % cytotox): 3% | cytotoxicity at 5 µg/mL ([1]; SCC-15, SCC15, 5 μg/ml, read-out: % cytotox): 0% | cytotoxicity at 10 µg/mL ([1]; SCC-15, SCC15, 10 μg/ml, read-out: % cytotox): 0% | cytotoxicity at 20 µg/mL ([1]; SCC-15, SCC15, 20 μg/ml, read-out: % cytotox): 8% | cytotoxicity at 25 µg/mL ([1]; SCC-15, SCC15, 25 μg/ml, read-out: % cytotox): 23% | cytotoxicity at 5 µg/mL ([2]; SCC-4, SCC4, 5 μg/ml, read-out: % cytotox): 52% | cytotoxicity at 10 µg/mL ([2]; SCC-4, SCC4, 10 μg/ml, read-out: % cytotox): 60% | cytotoxicity at 20 µg/mL ([2]; SCC-4, SCC4, 20 μg/ml, read-out: % cytotox): 60% | cytotoxicity at 40 µg/mL ([2]; SCC-4, SCC4, 40 μg/ml, read-out: % cytotox): 60% | cytotoxicity at 50 µg/mL ([2]; SCC-4, SCC4, 50 μg/ml, read-out: % cytotox): 40% | cytotoxicity at 0.8 μg/ml ([3]; New Born Foreskin Fibroblast cells, 0.8 μg/ml, read-out: % cytotox): 40% | cytotoxicity at 6.25 μg/ml ([3]; New Born Foreskin Fibroblast cells, 6.25 μg/ml, read-out: % cytotox): 40% | cytotoxicity at 12.5 μg/ml ([3]; New Born Foreskin Fibroblast cells, 12.5 μg/ml, read-out: % cytotox): 50% | cytotoxicity at 25 μg/ml ([3]; New Born Foreskin Fibroblast cells, 25 μg/ml, read-out: % cytotox): 55% | cytotoxicity at 0.8 µg/mL ([6]; SK-BR-3, SK-BR3, 0.8 μg/ml, read-out: % cytotox): 40% | cytotoxicity at 6.2 µg/mL ([6]; SK-BR-3, SK-BR3, 6.2 μg/ml, read-out: % cytotox): 50% | cytotoxicity at 12.5 µg/mL ([6]; SK-BR-3, SK-BR3, 12.5 μg/ml, read-out: % cytotox): 40% | cytotoxicity at 25 µg/mL ([6]; SK-BR-3, SK-BR3, 25 μg/ml, read-out: % cytotox): 50% | cytotoxicity at 2.5 μg/ml ([7]; OKF6, 2.5 μg/ml): 26% | cytotoxicity at 5 μg/ml ([7]; OKF6, 5 μg/ml): 41% | cytotoxicity at 10 μg/ml ([7]; OKF6, 10 μg/ml): 54% | cytotoxicity at 20 μg/ml ([7]; OKF6, 20 μg/ml): 48% | cytotoxicity at 25 μg/ml ([7]; OKF6, 25 μg/ml): 75%
